Reference: patent publication EP3009422A1, “Photo-switchable sulfonylureas and their uses” (Ludwig-Maximilians-Universität München, priority 2014, dated 2016)
“Also recorded” adds a separate entry of the source.

What was measured:
SUR1 = molecular target: T1, SUR1 (Rattus norvegicus, UniProt Q09429); experiment: [3H]-glibenclamide displacement radioassay in SUR1-expressing HEK293t cells; type: binding
T1 construct: expressed in transfected cells; host or cells: HEK293t
Experimental: SUR1-expressing HEK293t cells were harvested and washed twice in assaying buffer containing in mM: 119 NaCl, 4.7 KCl, […], 1.2 KH2PO4, 1.2 MgSO4, 5 NaHCO3, and 20 HEPES, pH 7.4. In a 96-well plate, ∼200,000 cells/well were incubated for 50 min with [3H]-glibenclamide (PerkinElmer) and different concentrations of glimepiride (Sigma-Aldrich) or JB253. Incubation was terminated by rapid filtration through Whatman GF/C filters by means of a Brandel MWXR-96 TI harvester and filters were washed 3 times with ice-cold assay buffer. Radioactivity was counted 6 h after cell and filter lysis in 200 µL Rotiszint EcoPlus (Roth) using a Packard microbeta scintillation counter (PerkinElmer).
(§1) Data distribution was determined using the D'Agostino omnibus test. Non-multifactorial pairwise comparisons were made using either the Student's t-test. Interactions between multiple treatments were assessed using one-way ANOVA followed by pairwise comparisons using Bonferroni's post-hoc test. Effect sizes in islets/cells are usually sufficiently large that multiple animals/independent replication is a more important determinant of power in studies requiring statistical comparison. Non-linear regression was used to calculate the EC50 of normalized and log-transformed concentration-response curves. For [3H]-glibenclamide displacement assays, data points were fitted to the Hill equation before calculation of the halfmax value. In all cases, analysis was performed using Graphpad Prism (Graphpad Software) and IgorPro, and experimental numbers reported as independent biological replicates. No animals or data were excluded from the analysis and results were considered significant at P<0.05.

mouse islets = experiment: Calcium imaging (fMCI) of beta cell activity in intact mouse islets; type: cell-based; conditions: mouse islets
Experimental: Male and female CD1 and C57BL6 mice (8-20 weeks) were maintained in a specific pathogen-free facility under a 12h light-dark cycle with ad libitum access to water and food. Animals were euthanized using a schedule-1 method and pancreatic islets isolated by collagenase digestion. All procedures were regulated by the Home Office according to the Animals (Scientific Procedures) Act 1986 of the United Kingdom (PPL 70/7349), and study approval granted by the Animal Welfare and Ethical Review Body (AWERB) of Imperial College. No randomization was used for animal experimentation, since mice were only used as tissue donors.
(§2) Islets were loaded for 30-45 min in fluo2-AM (10 µM) or for 2-5 min with X-Rhod 1 (5 µM) diluted with a mixture of DMSO (0.01%, wt/vol) and pluronic acid (0.001%, wt/vol; all Invitrogen) in a bicarbonate buffer containing in mM: 120 NaCl, 4.8 KCl, 1.25 NaH2PO4, 24 NaHCO3, 2.5 CaCl2, 1.2 MgCl2 and 5 D-glucose. fMCI was performed using a Zeiss Axiovert M200 fitted with a Nipkow spinning-disk head (Yokogawa CSU-10) and a 10x/0.3NA objective adjusted for chromatic aberration (EC Plan-Neofluar, Zeiss). Pulsed excitation (frequency = 0.5 Hz; exposure = 263 ms) was delivered at 491 nm and emitted signals recorded at 500-550 nm with a back-illuminated 16-bit EM-CCD camera (ImageEM 9100-13; Hamamatsu). During recording, islets were maintained at 35-36 °C in the presence of 50 µM JB253 using a custom-manufactured perfusion and heating system (Digital Pixel). Drugs were introduced through the perfusion system at the indicated time points and concentrations. Violet light was delivered by a 405 ± 5 nm laser coupled to the side port of the microscope and configured to fill the back of the objective with light using an Optospot (Cairn Research). Blue light was delivered using 440 ± 5 nm and 491 ± 5 nm diode lasers controlled by a laser merge module (Spectral Applied Research) to allow simultaneous exposure and acquisition. For single islet targeting, a 473 ± 5 nm laser was coupled to a custom-manufactured dichroic array (Cairn Research), allowing user-directed steering of a collimated laser spot across the field of view. Signals were normalized using F/Fmin where F is fluorescence at a given timepoint and Fmin is minimum fluorescence.
as §1

KATP channels = experiment: Whole cell patch clamp of KATP currents in MIN6 beta cells; type: cell-based; conditions: illumination 470 ± 20 nm, JB253 concentration printed as 10 mM
Experimental: MIN6 cells (obtained from Dr Jun-ichi Miyazaki, Osaka University, see Miyazaki et al., 1990)) were cultured in DMEM supplemented with 15% FBS, 1% glutamine, 2% HEPES buffer, 0.0005% β-mercaptoethanol and 1% penicillin/streptomycin. Cells were seeded onto glass coverslips 24 hrs before whole cell patch clamp experiments using micropipettes generated from thin-walled borosilicate capillaries (3-6 MΩ). Bath solution contained in mM: 3 KCl, 118 NaCl, 25 HEPES, 3 MgCl2 and 2 CaCl2. Pipette solution contained in mM: 150 KCl, 3 MgCl2, 5 EGTA, 10 HEPES, 0.3 K2ATP (pH 7.2), and the holding potential was -60 mV. Illumination was provided using a X-Cite 120 mercury arc lamp (Lumen Dynamics) with a bandpass filter (470 ± 20 nm). Voltage ramps from -20 mV to -120 mV (500 ms duration) were applied every 5 s to produce current-voltage relationships in the presence and absence of JB253. All cells lines were regularly mycoplasma tested.

human islets = experiment: Calcium imaging in isolated human islets of Langerhans; type: cell-based; conditions: human islets from three donors, 440 nm
Experimental: Human islets were isolated from deceased heart-beating donors (n = 3) at transplantation facilities in Pisa and Edmonton with the relevant national and local ethical permissions, including consent from next of kin where required, and cultured in RPMI supplemented with 5.5 mM D-glucose, 10% foetal calf serum (FCS), 100 U penicillin, 100 µg streptomycin and 0.25/µl fungizone (37 °C, 5% CO2). All studies involving human tissue were approved by the National Research Ethics Committee (NRES) London (Fulham), REC # 07/H0711/114.
as §2, with “For single islet targeting, a 473 ± 5 nm laser was coupled to a custom-manufactured dichroic array (Cairn Research), allowing user-directed steering of a collimated laser spot across the field of view.” left out

[1] = pKa measurement, absorbance-based platereader assay; type: physicochemical; conditions: DMSO/buffer mixture (1/1), pH 3.33-6.33, sigmoidal fitting, n = 3 assays
Experimental: Extinction coefficients were measured on a BMG Labtech Omega Series FLUOstar microplate reader with clear flat-bottom white 96 wellplates by full spectra acquirement in low K^+ external bath buffer (containing in mM: 3 KCl, 118 NaCl, 25 NaHCO3, 2 CaCl2, 1 MgCl2, 10 HEPES; NaOH to pH 7.4). All JB253-containing solutions (dilution series, n = 4: 10 nM; 100 nM; 1 µM; 10 µM; 25 µM; 50 µM) were background substracted and fitted with a linear slope. […] Full absorbance spectra (280-800 nm) were acquired and background subtracted before spectral differences were calculated. The total change of maximal positive and maximal negative difference was calculated and plotted against pH. Sigmoidal fit of the obtained plot gave access to the pKa.

[2] = Water solubility on dilution from DMSO stock; type: physicochemical; conditions: kinetic from dmso stock, diluted from a 50 mM stock solution in DMSO

T1 sequence (Q09429 whole entry): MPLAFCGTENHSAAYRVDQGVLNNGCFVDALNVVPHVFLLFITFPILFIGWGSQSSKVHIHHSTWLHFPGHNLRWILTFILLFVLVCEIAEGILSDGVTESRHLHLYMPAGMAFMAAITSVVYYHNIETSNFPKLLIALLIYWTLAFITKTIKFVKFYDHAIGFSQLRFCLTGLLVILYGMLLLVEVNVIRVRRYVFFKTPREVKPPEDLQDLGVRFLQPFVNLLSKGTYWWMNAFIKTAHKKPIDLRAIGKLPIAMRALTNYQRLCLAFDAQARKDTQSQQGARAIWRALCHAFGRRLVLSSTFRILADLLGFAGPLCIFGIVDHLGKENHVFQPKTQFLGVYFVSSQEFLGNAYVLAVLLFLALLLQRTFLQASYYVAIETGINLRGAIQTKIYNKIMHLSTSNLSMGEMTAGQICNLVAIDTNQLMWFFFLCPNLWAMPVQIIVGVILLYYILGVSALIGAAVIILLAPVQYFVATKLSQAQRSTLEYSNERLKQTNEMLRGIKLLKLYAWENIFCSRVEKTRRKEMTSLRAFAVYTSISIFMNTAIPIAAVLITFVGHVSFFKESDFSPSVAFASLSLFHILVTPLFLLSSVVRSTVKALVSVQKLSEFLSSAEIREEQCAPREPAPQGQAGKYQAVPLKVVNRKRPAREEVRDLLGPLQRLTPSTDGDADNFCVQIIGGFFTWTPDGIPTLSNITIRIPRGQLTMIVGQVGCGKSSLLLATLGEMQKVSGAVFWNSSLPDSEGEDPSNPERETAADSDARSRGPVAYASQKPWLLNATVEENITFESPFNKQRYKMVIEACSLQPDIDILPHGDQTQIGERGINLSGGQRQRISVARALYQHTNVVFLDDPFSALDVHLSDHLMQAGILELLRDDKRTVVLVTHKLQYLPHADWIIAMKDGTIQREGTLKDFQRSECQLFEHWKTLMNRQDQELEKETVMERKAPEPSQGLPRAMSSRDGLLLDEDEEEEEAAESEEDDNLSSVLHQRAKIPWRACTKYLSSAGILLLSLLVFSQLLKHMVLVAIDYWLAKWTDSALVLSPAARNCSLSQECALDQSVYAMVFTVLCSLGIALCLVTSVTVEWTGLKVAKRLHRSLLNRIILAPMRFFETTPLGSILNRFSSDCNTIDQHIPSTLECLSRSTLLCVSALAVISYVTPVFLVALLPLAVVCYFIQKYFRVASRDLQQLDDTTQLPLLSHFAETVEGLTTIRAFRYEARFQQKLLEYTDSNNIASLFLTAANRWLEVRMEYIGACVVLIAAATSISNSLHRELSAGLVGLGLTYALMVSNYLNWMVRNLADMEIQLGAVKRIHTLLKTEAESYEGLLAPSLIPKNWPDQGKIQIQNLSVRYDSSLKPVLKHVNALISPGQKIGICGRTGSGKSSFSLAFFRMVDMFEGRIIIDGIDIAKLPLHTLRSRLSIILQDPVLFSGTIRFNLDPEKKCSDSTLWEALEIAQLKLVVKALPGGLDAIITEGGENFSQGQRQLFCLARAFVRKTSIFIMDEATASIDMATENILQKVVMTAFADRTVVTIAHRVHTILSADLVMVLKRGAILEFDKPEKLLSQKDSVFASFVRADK

CCN(CC)c1ccc(/N=N/c2ccc(S(=O)(=O)NC(=O)NC3CCCCC3)cc2)cc1 [JB253, (E)-N-(cyclohexylcarbamoyl)-4-((4-(diethylamino)phenyl)diazenyl)benzenesulfonamide]
lower affinity to SUR1 compared to glimepiride (SUR1; [3H]-glibenclamide displacement, unaffected by illumination): 1000 fold
IC50 (SUR1; displacement of [3H]-glibenclamide, SUR1-expressing HEK293t cells, n = 3, cis-state may relax thermally during washing): 17.6 µM
fluo-2-loaded population responding to illumination with synchronous Ca^2+ rises (mouse islets; 50 µM JB253, 405 nm laser, n = 10 recordings): 54%
responsive X-Rhod-1-loaded cells (mouse islets; 50 µM JB253, 405 nm, n = 3 recordings): 63%
stimulation of [Ca^2+]i (mouse islets; concentration-response, dark): largely ineffective
concentration-response curve for glimepiride in the presence of trans-JB253 (mouse islets; saturating concentration (100 µM) of trans-JB253, dark): right-shifted
block of KATP (hyperpolarizing) currents (KATP channels): reversibly blocked; also recorded: only blocks the KATP current during illumination
X-Rhod1-loaded cells responding with Ca^2+ rises (human islets): ~62%
pKa [1]: 4.76
solubility [2]: ≥ 100 µM
